Data published in PMC9945734 (BMC Medicine, 2023).

System: PC-3-KQ and PC-3-KR cells
Experiment: RNA-sequencing and differential gene expression
Type: cell-based, human

## CC(=O)Oc1ccccc1C(=O)Nc1ncc([N+](=O)[O-])s1 [Nitazoxanide]
RNA-Seq, PC-3-KQ cells
  IL21R Change (KQ-Control vs KQ-NTZ): DOWN
  IL21R logFC (KQ-Control vs KQ-NTZ): -0.8899
  INHBA Change (KQ-Control vs KQ-NTZ): DOWN
  INHBA logFC (KQ-Control vs KQ-NTZ): -0.6293
  INHBB Change (KQ-Control vs KQ-NTZ): DOWN
  INHBB logFC (KQ-Control vs KQ-NTZ): -0.6733
  KIAA1755 Change (KQ-Control vs KQ-NTZ): DOWN
  KIAA1755 logFC (KQ-Control vs KQ-NTZ): -0.9388
  KLK9 Change (KQ-Control vs KQ-NTZ): DOWN
  KLK9 logFC (KQ-Control vs KQ-NTZ): -1.8809
  LGALS12 Change (KQ-Control vs KQ-NTZ): DOWN
  LGALS12 logFC (KQ-Control vs KQ-NTZ): -2.2497
  LILRB3 Change (KQ-Control vs KQ-NTZ): DOWN
  LILRB3 logFC (KQ-Control vs KQ-NTZ): -0.8729
  LOC105373989 Change (KQ-Control vs KQ-NTZ): DOWN
  LOC105373989 logFC (KQ-Control vs KQ-NTZ): -0.7405
  LOC105377805 Change (KQ-Control vs KQ-NTZ): DOWN
  LOC105377805 logFC (KQ-Control vs KQ-NTZ): -0.9959
  LOC107987158 Change (KQ-Control vs KQ-NTZ): DOWN
  LOC107987158 logFC (KQ-Control vs KQ-NTZ): -1.1348
  LONRF2 Change (KQ-Control vs KQ-NTZ): DOWN
  LONRF2 logFC (KQ-Control vs KQ-NTZ): -0.9823
  LTB Change (KQ-Control vs KQ-NTZ): DOWN
  LTB logFC (KQ-Control vs KQ-NTZ): -0.7686
  LY6K Change (KQ-Control vs KQ-NTZ): DOWN
  LY6K logFC (KQ-Control vs KQ-NTZ): -0.6327
  MAP7D3 Change (KQ-Control vs KQ-NTZ): DOWN
  MAP7D3 logFC (KQ-Control vs KQ-NTZ): -0.8315
  MCM4 Change (KQ-Control vs KQ-NTZ): DOWN
  MCM4 logFC (KQ-Control vs KQ-NTZ): -0.8431
  MEOX1 Change (KQ-Control vs KQ-NTZ): DOWN
  MEOX1 logFC (KQ-Control vs KQ-NTZ): -0.6507
  MMP9 Change (KQ-Control vs KQ-NTZ): DOWN
  MMP9 logFC (KQ-Control vs KQ-NTZ): -0.7252
  MNX1 Change (KQ-Control vs KQ-NTZ): DOWN
  MNX1 logFC (KQ-Control vs KQ-NTZ): -0.604
  MSMP Change (KQ-Control vs KQ-NTZ): DOWN
  MSMP logFC (KQ-Control vs KQ-NTZ): -1.1495
  MYBL2 Change (KQ-Control vs KQ-NTZ): DOWN
  MYBL2 logFC (KQ-Control vs KQ-NTZ): -0.7249
  MYH7B Change (KQ-Control vs KQ-NTZ): DOWN
  MYH7B logFC (KQ-Control vs KQ-NTZ): -0.9453
  NKD1 Change (KQ-Control vs KQ-NTZ): DOWN
  NKD1 logFC (KQ-Control vs KQ-NTZ): -0.7476
  NRK Change (KQ-Control vs KQ-NTZ): DOWN
  NRK logFC (KQ-Control vs KQ-NTZ): -1.1538
  NTF4 Change (KQ-Control vs KQ-NTZ): DOWN
  NTF4 logFC (KQ-Control vs KQ-NTZ): -0.9396
  PADI3 Change (KQ-Control vs KQ-NTZ): DOWN
  PADI3 logFC (KQ-Control vs KQ-NTZ): -0.9445
  PCDH18 Change (KQ-Control vs KQ-NTZ): DOWN
  PCDH18 logFC (KQ-Control vs KQ-NTZ): -1.1702
  PEG10 Change (KQ-Control vs KQ-NTZ): DOWN
  PEG10 logFC (KQ-Control vs KQ-NTZ): -0.7533
  PFKFB1 Change (KQ-Control vs KQ-NTZ): DOWN
  PFKFB1 logFC (KQ-Control vs KQ-NTZ): -0.9123
  PGAM4 Change (KQ-Control vs KQ-NTZ): DOWN
  PGAM4 logFC (KQ-Control vs KQ-NTZ): -0.6254
  PHACTR3 Change (KQ-Control vs KQ-NTZ): DOWN
  PHACTR3 logFC (KQ-Control vs KQ-NTZ): -1.8948
  PHOSPHO2 Change (KQ-Control vs KQ-NTZ): DOWN
  PHOSPHO2 logFC (KQ-Control vs KQ-NTZ): -0.6401
  PIANP Change (KQ-Control vs KQ-NTZ): DOWN
  PIANP logFC (KQ-Control vs KQ-NTZ): -1.6896
  PRKDC Change (KQ-Control vs KQ-NTZ): DOWN
  PRKDC logFC (KQ-Control vs KQ-NTZ): -0.6126
  PRR16 Change (KQ-Control vs KQ-NTZ): DOWN
  PRR16 logFC (KQ-Control vs KQ-NTZ): -0.5996
  PRR29 Change (KQ-Control vs KQ-NTZ): DOWN
  PRR29 logFC (KQ-Control vs KQ-NTZ): -0.8108
  PRRT4 Change (KQ-Control vs KQ-NTZ): DOWN
  PRRT4 logFC (KQ-Control vs KQ-NTZ): -0.6032
  RBL1 Change (KQ-Control vs KQ-NTZ): DOWN
  RBL1 logFC (KQ-Control vs KQ-NTZ): -0.6965
  RPP25 Change (KQ-Control vs KQ-NTZ): DOWN
  RPP25 logFC (KQ-Control vs KQ-NTZ): -0.6095
  SCG2 Change (KQ-Control vs KQ-NTZ): DOWN
  SCG2 logFC (KQ-Control vs KQ-NTZ): -0.6461
  SERPINA3 Change (KQ-Control vs KQ-NTZ): DOWN
  SERPINA3 logFC (KQ-Control vs KQ-NTZ): -0.7667
  SERPINA5 Change (KQ-Control vs KQ-NTZ): DOWN
  SERPINA5 logFC (KQ-Control vs KQ-NTZ): -0.8689
  SERPINB3 Change (KQ-Control vs KQ-NTZ): DOWN
  SERPINB3 logFC (KQ-Control vs KQ-NTZ): -1.6793
  SERPINB4 Change (KQ-Control vs KQ-NTZ): DOWN
  SERPIND1 Change (KQ-Control vs KQ-NTZ): DOWN
  SERPIND1 logFC (KQ-Control vs KQ-NTZ): -1.1652
  SGK1 Change (KQ-Control vs KQ-NTZ): DOWN
  SGK1 logFC (KQ-Control vs KQ-NTZ): -0.7813
  SHISA3 Change (KQ-Control vs KQ-NTZ): DOWN
  SHISA3 logFC (KQ-Control vs KQ-NTZ): -0.8421
  SLC22A4 Change (KQ-Control vs KQ-NTZ): DOWN
  SLC22A4 logFC (KQ-Control vs KQ-NTZ): -0.8073
  SLC26A9 Change (KQ-Control vs KQ-NTZ): DOWN
  SLC26A9 logFC (KQ-Control vs KQ-NTZ): -0.6605
  SLC45A2 Change (KQ-Control vs KQ-NTZ): DOWN
  SLC45A2 logFC (KQ-Control vs KQ-NTZ): -0.7358
  SLITRK5 Change (KQ-Control vs KQ-NTZ): DOWN
  SLITRK5 logFC (KQ-Control vs KQ-NTZ): -0.708
  SVEP1 Change (KQ-Control vs KQ-NTZ): DOWN
  SVEP1 logFC (KQ-Control vs KQ-NTZ): -1.4829
  TCN1 Change (KQ-Control vs KQ-NTZ): DOWN
  TCN1 logFC (KQ-Control vs KQ-NTZ): -0.7528
  TENM4 Change (KQ-Control vs KQ-NTZ): DOWN
  TENM4 logFC (KQ-Control vs KQ-NTZ): -0.7441
  TIMM8A Change (KQ-Control vs KQ-NTZ): DOWN
  TNF Change (KQ-Control vs KQ-NTZ): DOWN
  TNF logFC (KQ-Control vs KQ-NTZ): -0.6786
  TNFRSF6B Change (KQ-Control vs KQ-NTZ): DOWN
  TNFRSF6B logFC (KQ-Control vs KQ-NTZ): -0.5861
  TNFRSF11B Change (KQ-Control vs KQ-NTZ): DOWN
  TNFRSF11B logFC (KQ-Control vs KQ-NTZ): -2.1243
  TSPAN18 Change (KQ-Control vs KQ-NTZ): DOWN
  TSPAN18 logFC (KQ-Control vs KQ-NTZ): -0.7268
  TTC30A Change (KQ-Control vs KQ-NTZ): DOWN
  TTC30A logFC (KQ-Control vs KQ-NTZ): -0.7519
  TTC30B Change (KQ-Control vs KQ-NTZ): DOWN
  TTC30B logFC (KQ-Control vs KQ-NTZ): -0.6538
  XKRX Change (KQ-Control vs KQ-NTZ): DOWN
  XKRX logFC (KQ-Control vs KQ-NTZ): -0.6274
  ZFPM2 Change (KQ-Control vs KQ-NTZ): DOWN
  ZFPM2 logFC (KQ-Control vs KQ-NTZ): -1.4661
  ZNF28 Change (KQ-Control vs KQ-NTZ): DOWN
  ZNF28 logFC (KQ-Control vs KQ-NTZ): -0.6433
  ZNF302 Change (KQ-Control vs KQ-NTZ): DOWN
  ZNF302 logFC (KQ-Control vs KQ-NTZ): -1.2333
RNA-Seq, PC-3-KQ cells, KQ-Control vs KQ-NTZ, gene ABCB11
  logFC, gene ABCB11: -0.7396
RNA-Seq, PC-3-KQ cells, KQ-Control vs KQ-NTZ, gene C5orf63
  logFC, gene C5orf63: -1.615
RNA-Seq, PC-3-KQ cells, KQ-Control vs KQ-NTZ, gene C11orf65
  logFC, gene C11orf65: -0.9307
RNA-Seq, PC-3-KQ cells, KQ-Control vs KQ-NTZ, gene CELF3
  logFC, gene CELF3: -0.8233
RNA-Seq, PC-3-KQ cells, KQ-Control vs KQ-NTZ, gene LOC107985532
  logFC, gene LOC107985532: -0.9452
RNA-Seq, PC-3-KQ cells, KQ-Control vs KQ-NTZ, gene MROH8
  logFC, gene MROH8: -0.9801
RNA-Seq, PC-3-KQ cells, KQ-Control vs KQ-NTZ, gene RLN1
  logFC, gene RLN1: -1.0231
RNA-Seq, PC-3-KQ cells, KQ-Control vs KQ-NTZ, gene RP1L1
  logFC, gene RP1L1: -0.9422
RNA-Seq, PC-3-KQ cells, KQ-Control vs KQ-NTZ, gene SAXO2
  logFC, gene SAXO2: -0.8856
RNA-Seq, PC-3-KQ cells, KQ-Control vs KQ-NTZ, gene TNFAIP8L2-SCNM1
  logFC, gene TNFAIP8L2-SCNM1: -0.9389
RNA-Seq, PC-3-KQ cells, KQ-Control vs KQ-NTZ, gene ZNF154
  logFC, gene ZNF154: -0.8416
RNA-Seq, PC-3-KQ cells, KQ-Control vs KQ-NTZ, gene ZNF596
  logFC, gene ZNF596: -0.9026
RNA-Seq, PC-3-KQ cells, gene ABCB11
  Change (KQ-Control vs KQ-NTZ), gene ABCB11: DOWN
RNA-Seq, PC-3-KQ cells, gene C5orf63
  Change (KQ-Control vs KQ-NTZ), gene C5orf63: DOWN
RNA-Seq, PC-3-KQ cells, gene C11orf65
  Change (KQ-Control vs KQ-NTZ), gene C11orf65: DOWN
RNA-Seq, PC-3-KQ cells, gene CELF3
  Change (KQ-Control vs KQ-NTZ), gene CELF3: DOWN
RNA-Seq, PC-3-KQ cells, gene LOC107985532
  Change (KQ-Control vs KQ-NTZ), gene LOC107985532: DOWN
RNA-Seq, PC-3-KQ cells, gene MROH8
  Change (KQ-Control vs KQ-NTZ), gene MROH8: DOWN
RNA-Seq, PC-3-KQ cells, gene RLN1
  Change (KQ-Control vs KQ-NTZ), gene RLN1: DOWN
RNA-Seq, PC-3-KQ cells, gene RP1L1
  Change (KQ-Control vs KQ-NTZ), gene RP1L1: DOWN
RNA-Seq, PC-3-KQ cells, gene SAXO2
  Change (KQ-Control vs KQ-NTZ), gene SAXO2: DOWN
RNA-Seq, PC-3-KQ cells, gene TNFAIP8L2-SCNM1
  Change (KQ-Control vs KQ-NTZ), gene TNFAIP8L2-SCNM1: DOWN
RNA-Seq, PC-3-KQ cells, gene ZNF154
  Change (KQ-Control vs KQ-NTZ), gene ZNF154: DOWN
RNA-Seq, PC-3-KQ cells, gene ZNF596
  Change (KQ-Control vs KQ-NTZ), gene ZNF596: DOWN
Gene AADACL3
  change of NTZ treatment: down
Gene ABAT
  change of NTZ treatment: up
Gene ADIRF
  change of NTZ treatment: up
Gene ADIRF, KQ-Control vs KQ-NTZ
  logFC: 0.6207
Gene AKR1B1, KQ-Control vs KQ-NTZ
  logFC: 1.237
Gene AKR1C1
  change of NTZ treatment: up
Gene AKR1C1, KQ-Control vs KQ-NTZ
  logFC: 1.37
Gene AKR1C3
  change of NTZ treatment: up
Gene ANG
  change of NTZ treatment: up
Gene ANG, KQ-Control vs KQ-NTZ
  logFC: 1.354
